In patent US7939509B2, “Partial and full agonists of A1 adenosine receptors” (Gilead Sciences, Inc., priority 2002, dated 2011):
Where “and” joins values, the source holds several entries; their conditions need not be identical. Equal values may be shown once.

Legend:
awake rats [1] = experiment: Insulin dose response to reduce FFA with and without Compound A in awake rats; assay type: in vivo, rat
Method: FIG. 6 graphically represents how Compound A potentates the effect of insulin in reducing FFA levels. Shown are the dose response curves for the effect of insulin to reduce FFA obtained in the absence and presence of Compound A (0.5 mg/kg) in awake rats. Both insulin and Compound A were given via IP injection. Each data point is the mean±SEM of the maximal (peak effect) percent decrease in FFA levels from baseline from three to five rats.
The anti-lipolytic effects of Compound A were studied in awake rats. Animals were fasted overnight before experimental use. On the day of the experiment, animals were put in metabolic cages and left undisturbed to acclimate to the environment for 1-2 hrs. An infusion set (21 G×¾″, 0.8×19 mm U.T.W., 3½″, 9 cm tubing, volume 0.15 ml) was connected to the arterial catheter for blood sampling. A 1% sodium citrate saline solution was used to flush the lines. A pre-treatment blood sample was obtained from each animal to determine baseline values for FFA and TG. Compound A was given via oral gavage, sc injection, iv injection, or iv infusion, as described, for each different series of experiments. Blood samples were collected into serum separator tubes (Becton Dickinson, Franklin Lakes, N.J.) at pre-determined times, Blood was allowed to clot, and then centrifuged at 8000 rpm for 4 min at 4° C. The serum was stored at −80° C. and was thawed at 4° C. for determinations of FFA and TG contents.
The effect of insulin (0.005-1 U/kg) to reduce serum FFA was determined in the absence and presence of a single dose (0.5 mg/kg) of Compound A (FIG. 6). Baseline FFA levels before insulin administration in vehicle and Compound A treated groups were 0.84±0.01 and 0.92±0.02 mM, respectively. […] The insulin dose response to reduce FFA levels was then repeated in the presence of Compound A (0.5 mg/kg). Compound A alone (0.5 mg/kg) caused an 18% decrease in FFA levels. The doses of insulin that cause 50% decrease (ED50) in FFA levels in the absence and presence of Compound A were 0.4 and 0.1 U/kg, respectively.

awake rats [2] = experiment: Anti-lipolytic effect: serum free fatty acids (FFA) in overnight-fasted awake rats; assay type: in vivo, rat
Method: All experimental procedures were performed under a protocol approved by the Institutional Animal Care and Use Committee of CV Therapeutics, Inc., and in accordance with the recommendations set forth in the Guide for the Care and Use of Laboratory Animals published by the National Research Council. Male Sprague-Dawley rats (225-250 gm) with either one or two indwelling catheters (carotid and jugular) were purchased from Charles River Laboratories (Wilmington, Mass.). Animals were housed 1 per cage in a room maintained on a 12 h light/dark cycle (light on 06.00-18.00 h) under constant temperature (22-25° C.) and with ad libitum access to food and water. The anti-lipolytic effects of Compound A were studied in awake rats. Animals were fasted overnight before experimental use. On the day of the experiment, animals were put in metabolic cages and left undisturbed to acclimate to the environment for 1-2 hrs. An infusion set (21 G×¾″, 0.8×19 mm U.T.W., 3½″, 9 cm tubing, volume 0.15 ml) was connected to the arterial catheter for blood sampling. A 1% sodium citrate saline solution was used to flush the lines. A pre-treatment blood sample was obtained from each animal to determine baseline values for FFA and TG. Compound A was given via oral gavage, sc injection, iv injection, or iv infusion, as described, for each different series of experiments. Blood samples were collected into serum separator tubes (Becton Dickinson, Franklin Lakes, N.J.) at pre-determined times, Blood was allowed to clot, and then centrifuged at 8000 rpm for 4 min at 4° C. The serum was stored at −80° C. and was thawed at 4° C. for determinations of FFA and TG contents. […] Sodium citrate and Triton WR1339 were purchased from Sigma (St. Louis, Mo.). Nicotinic acid and PEG 400 were purchased from VWR (by EMD Chemicals). Triton WR 1339 was diluted in warm saline (˜37° C.) with frequent vortexing. […] Compound A was dissolved in PEG 400, and then diluted with distilled water to make a 20% PEG drug solution. Serum FFA and TGs were measured using commercial kits from Wako Chemicals, Richmond, Va. Glucose and Insulin were measured using commercial kits from Wako Chemicals USA (Richmond, Va.). All data are reported as mean±SEM. Statistical analysis of data from experiments with 2 treatment groups was performed using the unpaired Student's t-test. Two way analysis of variance followed by Bonferroni's test was used for multiple comparisons.

[3] = cited from earlier work

## insulin
Awake rats [1]; in the absence of Compound A
  dose of insulin that causes 50% decrease (ED50) in FFA levels: 0.4 (0.3916-0.4208, 95% Cl) U/kg and 0.4 U/kg
Awake rats [1]; in the presence of Compound A (0.5 mg/kg IP), 0.5 mg/kg
  dose of insulin that causes 50% decrease (ED50) in FFA levels: 0.1 (0.0935-0.133) U/kg and 0.1 U/kg
Awake rats [1]; insulin 0.005-1 U/kg IP, without Compound A
  lowering of FFA levels by insulin: up to 67±1%

## O=C(O)c1cccnc1 [nicotinic acid, reference compound]
Awake rats [2]; 10 mg/kg iv bolus
  maximal decrease in FFA levels: 57±5%
Awake rats [2]; 10 mg/kg iv bolus, from 0.85±0.09, p<0.001
  FFA level after treatment: 0.35 ± 0.01 nM
Awake rats [2]; after iv bolus
  rebound increase of FFA levels: seen

## Nc1ncnc2c1ncn2[C@@H]1O[C@H](CO)[C@@H](O)[C@H]1O [adenosine]
[3]
  half-life: less than 10 sec
